Test results published in US20070015149A1, “Prlz regulatory elements in the treatment of disease and the discovery of therapeutics” (priority 2002, published 2007).

Legend:
[1] = test system: PrLZ expression; assay: Androgen-activated PrLZ expression in prostate cancer cell lines after androgen deprivation; assay type: cell-based, human
Method: (§1) As an accessory sex organ, development and function of the prostate gland are controlled by androgens, through the mediation of the AR (Gelmann, J. Clin. Oncol. 20:3001-15, 2002). To investigate the possible regulation of PrLZ by androgens, we treated prostate cancer cell lines with an androgen analog, methyltrienolone (R1881, 1 nM), after androgen deprivation. Under cell culture conditions for androgen deprivation (phenol red-free RPMI1640 for 48 hours), there was a marked decline in PrLZ expression in all the prostate cancer cell lines. […] This culture system, or another like it, can be used to identify agents that modulate (by either increasing or decreasing) PrLZ expression.
Expression studies: The 502 bp PrLZ gene-specific fragment was subcloned after PCR amplification of the PrLZ cDNA in pBK-CMV, with primers: […], and […]. The amplified DNA was cloned into pGEM-T easy (Promega) and verified by DNA sequencing. The fragment was released from the vector by EcoRi and used in hybridization reactions. Standard protocols were used in Southern and Northern blot hybridizations (Sambrook et al., Molecular cloning, a laboratory manual, Clod Spring Harbor Laboratory Press, 2001), with α-^32P-dCTP used in the labeling step. […]

[2] = test system: PSA expression; assay: Androgen-activated PSA expression in LNCaP lineage cells; assay type: cell-based, human; conditions: LNCaP vs C4-2 and C4-2B4 cells
Method: as §1
By comparing the patterns of androgen-activated expression of PrLZ and PSA, it became clear that PrLZ was controlled by a regulatory mechanism that was different from the one controlling the PSA expression. […] Thus, along the transition from an AD to an AI state, there were heterologous changes in AR mediated gene regulation. While LNCAP derivative cell lines lost the mechanism of AR-controlled PSA production, they maintained the capability to regulate some other androgen responsive genes, including PrLZ.

[3] = test system: expression of TPD52 members; conditions: HL-60 and K-562 cells; cited from earlier work

| SMILES | PrLZ expression upon androgen treatment ([1]; R1881 1 nM after androgen deprivation (phenol red-free RPMI1640, 48 hours), prostate cancer cell lines) | PrLZ transcription upon androgen treatment ([1]; all LNCaP lineage cells (LNCaP, C4-2, C4-2B4)) | PSA expression upon androgen treatment [2] | Expression of TPD52 members upon treatment [3] |
| --- | --- | --- | --- | --- |
| C[C@]1(O)CC[C@H]2[C@@H]3CCC4=CC(=O)CCC4=C3C=C[C@@]21C [R1881, methyltrienolone] | dramatically activated the expression of the PrLZ | marked PrLZ transcription | androgen-dependent up-regulation only in LCNaP cells |  |
| CCCCCCCCCCCCCC(=O)O[C@@H]1[C@@H](C)[C@@]2(O)[C@@H](C=C(CO)C[C@]3(O)C(=O)C(C)=C[C@@H]23)[C@H]2C(C)(C)[C@]12OC(C)=O [TPA, 12-O-trtradecanoylphorbol-13-acetate] |  |  |  | inhibited |
